Source: US7332476B2, “Pyridyl substituted ketolide antibiotics” (Novartis AG, priority 2003, dated 2008)
≈ marks a conversion by molar mass, not a printed value.

Assays:
Assay in all cases: MIC, broth microdilution (NCCLS)
Format in all cases: cell-based
[1] = tested on: Streptococcus pneumoniae Stpn_Erm S 4297; conditions: for MIC: Table 10, Strain ID R (Table 8): Streptococcus pneumoniae Stpn_Erm S 4297
Method in brief: (§1)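 NCCLS broth microdilution with 2-fold serial drug dilutions (methanol stocks diluted in water); inoculum 3×10^5–7×10^5 CFU/ml in CAMHB, with 2-5% lysed horse blood for S. pneumoniae. Incubation 18-24 h at 35° C., ambient air, except S. pneumoniae (5-10% CO2). MIC is lowest concentration preventing visible growth.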

[2] = tested on: Staphylococcus epidermidis Step_14990; conditions: in µg/mL (unit assumed); for MIC: Table 10, Strain ID C (Table 8): Staphylococcus epidermidis Step_14990
Method in brief: as §1

[3] = tested on: Staphylococcus aureus Stau_29213; conditions: in µg/mL (unit assumed); for MIC: Table 10, Strain ID A (Table 8): Staphylococcus aureus Stau_29213
Method in brief: as §1

[4] = tested on: Haemophilus influenzae Hain_49247; conditions: unit assumed; for MIC: Table 10, Strain ID H (Table 8): Haemophilus influenzae Hain_49247
[5] = tested on: Enterococcus faecalis Enfa_29212; conditions: in µg/mL (unit assumed); for MIC: Table 10, Strain ID E (Table 8): Enterococcus faecalis Enfa_29212
Method in brief: as §1

[6] = tested on: Staphylococcus epidermidis Step_f50654; conditions: in µg/mL (unit assumed); for MIC: Table 10, Strain ID D (Table 8): Staphylococcus epidermidis Step_f50654
Method in brief: as §1

[7] = tested on: Streptococcus pneumoniae Stpn_Mef S 3427; conditions: Table 10, Strain ID Q (Table 8): Streptococcus pneumoniae Stpn_Mef S 3427; in µg/mL (unit assumed)
Method in brief: as §1

[8] = tested on: Streptococcus pneumoniae Stpn_280-962; set-up: MIC, strain ID O: unit not given beside the values; conditions: for MIC: Table 10, Strain ID O (Table 8): Streptococcus pneumoniae Stpn_280-962
Method in brief: as §1

[9] = tested on: Streptococcus pneumoniae Stpn_Mef 5654; set-up: MIC, strain ID R: unit not given beside the values; conditions: for MIC: Table 10, Strain ID P (Table 8): Streptococcus pneumoniae Stpn_Mef 5654, in µg/mL (unit assumed)
Method in brief: as §1

[10] = tested on: Streptococcus pneumoniae Stpn_297-749; set-up: MIC, strain ID N: unit not given here; conditions: for MIC: Table 10, Strain ID N (Table 8): Streptococcus pneumoniae Stpn_297-749
Method in brief: as §1

[11] = tested on: Staphylococcus aureus Stau_33591; conditions: unit assumed; for MIC: Table 10, Strain ID B (Table 8): Staphylococcus aureus Stau_33591
Method in brief: (§2)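 NCCLS broth microdilution; CAMHB / HTM (H. influenzae); inoc 3×10^5–7×10^5 CFU/ml; 35° C, 18-24 h, H. influenzae 5-10% CO2; MIC = no visible growth.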

[12] = tested on: Haemophilus influenzae Hain_953460299-3; conditions: in µg/mL (unit assumed); for MIC: Table 10, Strain ID K (Table 8): Haemophilus influenzae Hain_953460299-3
Method in brief: as §2

[13] = tested on: Enterococcus faecalis Enfa_bc 11148-2; conditions: in µg/mL (unit assumed); for MIC: Table 10, Strain ID F (Table 8): Enterococcus faecalis Enfa_bc 11148-2
Method in brief: as §2

[14] = tested on: Haemophilus influenzae Hain_2762; conditions: in µg/mL (unit assumed); for MIC: Table 10, Strain ID L (Table 8): Haemophilus influenzae Hain_2762
Method in brief: as §2

[15] = tested on: Haemophilus influenzae Hain_960820544-3; conditions: in µg/mL (unit assumed); for MIC: Table 10, Strain ID J (Table 8): Haemophilus influenzae Hain_960820544-3
Method in brief: as §2

[16] = tested on: Haemophilus influenzae Hain_960730503-3; conditions: in µg/mL (unit assumed); for MIC: Table 10, Strain ID I (Table 8): Haemophilus influenzae Hain_960730503-3
Method in brief: as §2

[17] = tested on: Streptococcus pneumoniae Stpn_49619; set-up: MIC, strain ID M: unit not given beside the values; conditions: for MIC: Table 10, Strain ID M (Table 8): Streptococcus pneumoniae Stpn_49619
Method in brief: as §1

SMILES	MIC [1]	MIC [2]	MIC [3]	MIC [4]	MIC [5]	MIC [6]	MIC [7]	MIC [8]	MIC [9]	MIC [10]	MIC [11]	MIC [12]	MIC [13]	MIC [14]	MIC [15]	MIC [16]	MIC [17]	MIC ([1]; unit assumed)	also measured
C=C[C@]12OC(=O)N(CCCCn3cnc(-c4ccc(C)nc4)c3)[C@@H]1[C@@H](C)C(=O)[C@H](C)C[C@](C)(OC)[C@H](OC1O[C@H](C)C[C@H](N(C)C)[C@H]1O)[C@@H](C)C(=O)[C@@H](C)C(=O)O[C@@H]2CC (stereo partly drawn) [XVI]	=0.05	0.2	0.2	6.25 µg/mL (≈ 7.46 µM)	0.1	0.2	0.1	=0.05	0.78	=0.05	> 50 µg/mL	6.25	0.78	1.56	6.25	6.25	=0.05		
CC[C@H]1OC(=O)[C@@](C)(F)C(=O)[C@H](C)[C@@H](OC2O[C@H](C)C[C@H](N(C)C)[C@H]2O)[C@@](C)(OC)C[C@@H](C)C(=O)[C@H](C)[C@H]2N(CCCCn3cnc(-c4ccc(C)nc4)c3)C(=O)O[C@]12CC (stereo partly drawn) [XIV]		0.2	0.2	6.25 µg/mL (≈ 7.28 µM)	0.2	0.4	0.1	=0.05	0.78	=0.05	> 50 µg/mL	6.25	1.56	1.56	6.25	6.25	=0.05	0.1 µg/mL (≈ 0.117 µM)	
C=C[C@]12OC(=O)N(CCCCn3cnc(-c4ccc(OC)nc4)c3)[C@@H]1[C@@H](C)C(=O)[C@H](C)C[C@](C)(OC)[C@H](OC1O[C@H](C)C[C@H](N(C)C)[C@H]1O)[C@@H](C)C(=O)[C@@H](C)C(=O)O[C@@H]2CC (stereo partly drawn) [XVIII]		0.2	0.2	6.25 µg/mL (≈ 7.32 µM)	0.1	0.2	0.2	=0.05	0.78	=0.05	> 50 µg/mL	6.25	0.78	1.56	6.25	6.25	=0.05	0.1 µg/mL (≈ 0.117 µM)	
CC[C@H]1OC(=O)[C@H](C)C(=O)[C@H](C)[C@@H](O[C@@H]2O[C@H](C)C[C@H](N(C)C)[C@H]2O)[C@](C)(OC)C[C@@H](C)C(=O)[C@H](C)[C@H]2N(CCCCn3cnc(-c4cccnc4)c3)C(=O)O[C@]12C [Telithromycin, telithromycin, reference compound]	=0.1	0.1-0.2	0.1-0.2	3.13 µg/mL (≈ 3.85 µM)	0.1-0.2	0.1-0.2	0.1-0.2	=0.05	0.2-0.78	=0.05	> 50 µg/mL	3.13-6.25	0.4-0.78	0.78-1.56	3.13-6.25	3.13-6.25	=0.05		MIC, strain ID Q ([1]; strain ID Q, broth microdilution, in µg/mL (unit assumed)): 0.1-0.2; MIC, strain ID C ([2]; strain ID C, broth microdilution): 0.1-0.2; MIC, strain ID A ([3]; strain ID A, broth microdilution): 0.1-0.2; MIC, strain ID H ([4]; strain ID H, broth microdilution): 3.13 µg/mL (≈ 3.85 µM); MIC, strain ID E ([5]; strain ID E, broth microdilution): 0.1-0.2; MIC, strain ID D ([6]; strain ID D, broth microdilution): 0.1-0.2; MIC, strain ID O ([8]; strain ID O, broth microdilution): =0.05; MIC, strain ID R ([9]; strain ID R, broth microdilution): =0.1; MIC, strain ID N ([10]; strain ID N, broth microdilution): =0.05; MIC, strain ID B ([11]; strain ID B, broth microdilution): > 50 µg/mL; MIC, strain ID K ([12]; strain ID K, broth microdilution): 3.13-6.25; MIC, strain ID F ([13]; strain ID F, broth microdilution): 0.4-0.78; MIC, strain ID L ([14]; strain ID L, broth microdilution): 0.78-1.56; MIC, strain ID J ([15]; strain ID J, broth microdilution): 3.13-6.25; MIC, strain ID I ([16]; strain ID I, broth microdilution): 3.13-6.25; MIC, strain ID M ([17]; strain ID M, broth microdilution): =0.05
